Assay results from patent US20220282217A1, “COMPOSITIONS AND METHODS FOR PREPARING T CELL COMPOSITIONS AND USES THEREOF” (priority 2019, published 2022).
Where a SMILES comes first, the peptide text is derived from it.

Columns and labels:
[1] = molecular target: HLA-A24.02; experiment: Class I MHC peptide binding affinity (displacement of radiolabeled reference peptide); set-up: species or system human; conditions: allele A24.02; read-out: Observed Affinity (IC50; (nM))
[2] = molecular target: HLA-A03.01 (Homo sapiens, UniProt P04439); experiment: as above; conditions: allele A03.01; read-out: Observed Affinity (IC50; (nM))
[3] = molecular target: T1, HLA-A02.01 (Homo sapiens, UniProt P04439, D140Y/D185E/D98H/E176V/E277Q/G131W/G231S/I119V/I121R/I166T/I218V/N151K/N90K/P208A/P217A/Q86G/Q94H/R138H/R169H); experiment: Class I MHC peptide binding stability (pMHC-I dissociation, 125I-labeled light chain); conditions: allele A02.01
T1 construct: made in house; host or cells: E. coli

[4] = molecular target: HLA-A02.01 (Homo sapiens, UniProt P04439, D140Y/D185E/D98H/E176V/E277Q/G131W/G231S/I119V/I121R/I166T/I218V/L300P/L318F/N151K/N90K/P208A/P217A/Q86G/Q94H/R138H/R169H/T345S); experiment: Class I MHC peptide binding affinity (displacement of radiolabeled reference peptide); conditions: allele A02.01; read-out: Observed Affinity (IC50; (nM))
In short: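 Radiolabeled reference peptide/MHCI complexes; test peptide titration, 2 d incubation; bound label remaining read by size-exclusion gel filtration.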

SMILES | IC50 [2] | other results
CSCC[C@H](NC(=O)[C@@H](N)CCCNC(=N)N)C(=O)N1CCC[C@H]1C(=O)N1CCC[C@H]1C(=O)N[C@@H](CS)C(=O)N[C@@H](CC(C)C)C(=O)N[C@@H](C)C(=O)N[C@@H](CC(N)=O)C(=O)N[C@@H](Cc1ccccc1)C(=O)O (H-RMPPCLANF-OH; N-terminus and C-terminus assumed) |  | IC50 [1]: 8.7 nM
CC(C)C[C@H](NC(=O)[C@@H](N)CCCNC(=N)N)C(=O)N[C@@H](CO)C(=O)N[C@@H](CO)C(=O)N[C@@H](CS)C(=O)N[C@H](C(=O)N1CCC[C@H]1C(=O)N[C@H](C(=O)N[C@@H](C)C(=O)O)C(C)C)C(C)C | 439 nM | Stability (T1/2 (h)) [3]: 18.7 h
CC(C)C[C@H](NC(=O)[C@H](CC(C)C)NC(=O)[C@H](CCC(=O)O)NC(=O)[C@@H]1CCCN1C(=O)[C@H](Cc1ccccc1)NC(=O)[C@@H](N)CCCCN)C(=O)N[C@@H](CS)C(=O)N[C@H](C(=O)N[C@@H](Cc1c[nH]c2ccccc12)C(=O)O)C(C)C (H-KFPELLCVW-OH; N-terminus and C-terminus assumed) |  | IC50 [1]: 13.7 nM
CC[C@H](C)[C@H](NC(=O)[C@H](Cc1ccc(O)cc1)NC(=O)[C@@H](N)CC(C)C)C(=O)N[C@H](C(=O)N[C@@H](C)C(=O)N[C@@H](Cc1ccccc1)C(=O)N[C@@H](Cc1ccccc1)C(=O)N[C@@H](Cc1ccccc1)C(=O)N[C@@H](CS)C(=O)N[C@@H](Cc1c[nH]c2ccccc12)C(=O)O)[C@@H](C)O (H-LYITAFFFCW-OH; N-terminus and C-terminus assumed) |  | IC50 [1]: 45.3 nM
CC[C@H](C)[C@H](NC(=O)[C@H](Cc1ccc(O)cc1)NC(=O)[C@@H](N)CC(C)C)C(=O)N[C@H](C(=O)N[C@@H](C)C(=O)N[C@@H](Cc1ccccc1)C(=O)N[C@@H](Cc1ccccc1)C(=O)N[C@@H](CC(C)C)C(=O)N[C@@H](CC(C)C)C(=O)N[C@@H](CC(=O)O)C(=O)O)[C@@H](C)O (H-LYITAFFLLD-OH; N-terminus and C-terminus assumed) |  | IC50 [1]: 0.4 nM
CSCC[C@H](NC(=O)[C@@H](N)C(C)C)C(=O)N[C@@H](C)C(=O)NCC(=O)N[C@@H](CC(C)C)C(=O)NCC(=O)N[C@@H](CO)C(=O)N1CCC[C@H]1C(=O)N[C@@H](Cc1ccc(O)cc1)C(=O)N[C@H](C(=O)O)C(C)C (H-VMAGLGSPYV-OH; N-terminus and C-terminus assumed) | 11200 nM | Stability (T1/2 (h)) [3]: 2.9 h; IC50 [4]: 102 nM
CC(C)C[C@H](NC(=O)[C@H](CS)NC(=O)[C@H](CO)NC(=O)[C@H](Cc1ccccc1)NC(=O)[C@H](CC(C)C)NC(=O)[C@H](CCCCN)NC(=O)[C@H](Cc1ccccc1)NC(=O)CN)C(=O)N[C@@H](CO)C(=O)N[C@@H](Cc1ccccc1)C(=O)O (H-GFKLFSCLSF-OH; N-terminus and C-terminus assumed) |  | IC50 [1]: 643 nM
CC[C@H](C)[C@H](NC(=O)[C@H](CS)NC(=O)[C@H](Cc1ccccc1)NC(=O)[C@H](CC(N)=O)NC(=O)[C@H](C)NC(=O)[C@H](CC(C)C)NC(=O)[C@@H](N)CS)C(=O)N[C@@H](Cc1ccccc1)C(=O)N[C@@H](CC(N)=O)C(=O)N[C@@H](CCCNC(=N)N)C(=O)O | 222 nM | 
CC[C@H](C)[C@H](NC(=O)[C@H](Cc1c[nH]c2ccccc12)NC(=O)[C@H](CS)NC(=O)[C@H](Cc1ccccc1)NC(=O)[C@H](Cc1ccccc1)NC(=O)[C@@H](N)Cc1ccccc1)C(=O)N[C@@H](CC(C)C)C(=O)N[C@@H](CO)C(=O)N[C@@H](CS)C(=O)N[C@@H](CCCCN)C(=O)O (H-FFFCWILSCK-OH; N-terminus and C-terminus assumed) | 597 nM | 
CC[C@H](C)[C@H](N)C(=O)N[C@H](C(=O)N[C@H](C(=O)N[C@H](C(=O)N[C@@H](CCCCN)C(=O)N[C@@H](C)C(=O)N[C@H](C(=O)N[C@@H](CCC(=O)O)C(=O)N[C@H](C(=O)N[C@@H](CCCCN)C(=O)O)[C@@H](C)O)[C@@H](C)O)C(C)C)[C@@H](C)O)[C@@H](C)O (H-ITTVKATETK-OH; N-terminus and C-terminus assumed) | 1250 nM | 
CSCC[C@H](NC(=O)[C@@H](NC(=O)[C@H](Cc1ccccc1)NC(=O)[C@@H](N)CC(C)C)C(C)C)C(=O)N[C@@H](CO)C(=O)N[C@@H](CC(=O)O)C(=O)N[C@H](C(=O)N[C@H](C(=O)N[C@@H](Cc1ccc(O)cc1)C(=O)N[C@@H](CCCCN)C(=O)O)[C@@H](C)O)[C@@H](C)O (H-LFVMSDTTYK-OH; N-terminus and C-terminus assumed) | 749 nM | 
CC(C)C[C@H](N)C(=O)N[C@@H](Cc1ccccc1)C(=O)N[C@@H](Cc1ccccc1)C(=O)N[C@@H](Cc1ccccc1)C(=O)N[C@@H](Cc1ccccc1)C(=O)N[C@@H](Cc1ccccc1)C(=O)N[C@@H](CCC(=O)O)C(=O)N[C@H](C(=O)N[C@@H](CCCCN)C(=O)O)[C@@H](C)O (H-LFFFFFETK-OH; N-terminus and C-terminus assumed) | 413 nM | 
CC[C@H](C)[C@H](NC(=O)[C@H](CCCCN)NC(=O)[C@@H](N)CCCNC(=N)N)C(=O)N[C@@H](CO)C(=O)N[C@@H](CC(N)=O)C(=O)N[C@@H](Cc1c[nH]c2ccccc12)C(=O)N[C@@H](CO)C(=O)N[C@@H](CC(C)C)C(=O)N[C@@H](CCCCN)C(=O)N[C@@H](CCCCN)C(=O)O (H-RKISNWSLKK-OH; N-terminus and C-terminus assumed) | 131 nM | 
CC[C@H](C)[C@H](NC(=O)[C@@H](N)CCCCN)C(=O)N[C@@H](CO)C(=O)N[C@@H](CC(N)=O)C(=O)N[C@@H](Cc1c[nH]c2ccccc12)C(=O)N[C@@H](CO)C(=O)N[C@@H](CC(C)C)C(=O)N[C@@H](CCCCN)C(=O)N[C@@H](CCCCN)C(=O)N[C@H](C(=O)O)C(C)C (H-KISNWSLKKV-OH; N-terminus and C-terminus assumed) | 115 nM | 
CC[C@H](C)[C@H](NC(=O)[C@H](Cc1ccc(O)cc1)NC(=O)[C@H](CC(C)C)NC(=O)[C@H](CO)NC(=O)[C@H](CC(N)=O)NC(=O)[C@H](CS)NC(=O)[C@H](CCC(=O)O)NC(=O)[C@H](Cc1c[nH]cn1)NC(=O)[C@H](CC(C)C)NC(=O)[C@@H](N)C(C)C)C(=O)O (H-VLHECNSLYI-OH; N-terminus and C-terminus assumed) | 10500 nM | Stability (T1/2 (h)) [3]: 5.1 h; IC50 [4]: 10 nM

Continued, in another order:

IC50 [2] | SMILES | other results
33 nM | CSCC[C@H](NC(=O)[C@H](CC(C)C)NC(=O)[C@@H]1CCCN1C(=O)[C@@H](NC(=O)[C@H](CCCCN)NC(=O)[C@H](CCSC)NC(=O)[C@@H](N)CCCNC(=N)N)C(C)C)C(=O)N[C@@H](CCCCN)C(=O)O (H-RMKVPLMK-OH; N-terminus and C-terminus assumed) | 
66.9 nM | CSCC[C@H](NC(=O)[C@@H](NC(=O)[C@@H](N)Cc1ccccc1)C(C)C)C(=O)N[C@@H](CO)C(=O)N[C@@H](CC(=O)O)C(=O)N[C@H](C(=O)N[C@H](C(=O)N[C@@H](Cc1ccc(O)cc1)C(=O)N[C@@H](CCCCN)C(=O)O)[C@@H](C)O)[C@@H](C)O (H-FVMSDTTYK-OH; N-terminus and C-terminus assumed) | 
12.5 nM | CC(C)C[C@H](NC(=O)[C@@H](NC(=O)[C@H](CO)NC(=O)[C@H](CO)NC(=O)[C@H](CC(C)C)NC(=O)[C@@H](N)CCCNC(=N)N)C(C)C)C(=O)N[C@@H](CCC(N)=O)C(=O)N[C@@H](CCCNC(=N)N)C(=O)N[C@@H](Cc1ccccc1)C(=O)N[C@@H](CCCNC(=N)N)C(=O)O | 
104 nM | CC(C)C[C@H](NC(=O)[C@H](Cc1ccccc1)NC(=O)[C@H](CO)NC(=O)[C@H](CC(C)C)NC(=O)[C@H](CS)NC(=O)[C@H](CO)NC(=O)[C@H](Cc1ccccc1)NC(=O)[C@H](CC(C)C)NC(=O)[C@@H](N)CCCCN)C(=O)N[C@@H](CO)C(=O)O (H-KLFSCLSFLS-OH; N-terminus and C-terminus assumed) | IC50 [4]: 0.6 nM
4.7 nM | CC(C)C[C@H](NC(=O)[C@H](CCC(N)=O)NC(=O)[C@H](CC(C)C)NC(=O)[C@H](Cc1c[nH]cn1)NC(=O)[C@H](CC(N)=O)NC(=O)[C@H](CCC(N)=O)NC(=O)[C@H](CCCNC(=N)N)NC(=O)[C@H](CO)NC(=O)[C@@H](N)CCCCN)C(=O)N[C@@H](CCCCN)C(=O)O (H-KSRQNHLQLK-OH; N-terminus and C-terminus assumed) | 
5.4 nM | CC(C)C[C@H](NC(=O)[C@@H](N)[C@@H](C)O)C(=O)N[C@@H](CC(N)=O)C(=O)N[C@@H](CO)C(=O)N1CCC[C@H]1C(=O)N1CCC[C@H]1C(=O)N[C@@H](CC(C)C)C(=O)N[C@@H](CCCCN)C(=O)N[C@@H](CCCCN)C(=O)O (H-TLNSPPLKK-OH; N-terminus and C-terminus assumed) | 
94.9 nM | CC(C)C[C@H](NC(=O)[C@H](C)NC(=O)[C@@H]1CCCN1C(=O)[C@@H](NC(=O)[C@H](CCCCN)NC(=O)[C@H](CCCCN)NC(=O)[C@H](CC(C)C)NC(=O)[C@H](CO)NC(=O)[C@@H](N)Cc1c[nH]c2ccccc12)C(C)C)C(=O)N[C@@H](CCCCN)C(=O)O (H-WSLKKVPALK-OH; N-terminus and C-terminus assumed) | 
2.3 nM | CC(C)[C@H](NC(=O)[C@@H](N)CCCNC(=N)N)C(=O)N[C@@H](CC(N)=O)C(=O)N[C@H](C(=O)N[C@@H](C)C(=O)N[C@@H](Cc1c[nH]c2ccccc12)C(=O)N[C@@H](CCCCN)C(=O)N[C@H](C(=O)N[C@@H](CCCCN)C(=O)N[C@@H](CCCCN)C(=O)O)[C@@H](C)O)[C@@H](C)O (H-RVNTAWKTKK-OH; N-terminus and C-terminus assumed) | 
5.7 nM | CSCC[C@H](NC(=O)[C@@H](N)CCCCN)C(=O)N[C@@H](CCCNC(=N)N)C(=O)N[C@@H](CCCCN)C(=O)N[C@@H](CCCCN)C(=O)N[C@@H](Cc1ccc(O)cc1)C(=O)N[C@@H](C)C(=O)N[C@@H](CCC(N)=O)C(=O)N[C@@H](CCCCN)C(=O)O (H-KMRKKYAQK-OH; N-terminus and C-terminus assumed) | 
